Experiments:
conscious mice = assay: Determination of the prolongation of bleeding time; format: in vivo; conditions: Mus musculus, po, 1 h, 10 mg/kg orally, after one hour, versus control group
Method: To measure the bleeding time, 10 mg/kg of the test compound is administered orally to conscious mice. After one hour 0.5 mm of the tip of the tail of the mouse is cut off, and the droplets of blood are gently removed with filter paper every 30 seconds. The number of drops of blood give a measure of the bleeding time (5 animals/experiment). The values in the following table represent the prolongation as a percentage as compared to a control group: […]

phosphodiesterase (PDE) = assay: PDE inhibition; format: biochemical; conditions: 10,000×g supernatant of human blood platelets, 1 μmol/liter 3H-cAMP, pH 7.4, 15 minutes at 37° C.
Method: cAMP is hydrolysed to AMP by phosphodiesterase (PDE) from various sources, including blood platelets. This hydrolysis is inhibited by PDE inhibitors according to the concentration.
The phosphodiesterase used is the 10,000×g supernatant of human blood platelets which have been frozen with water and thawed out again. An amount of 0.3 ml of a mixture which contains 0.1 mol/liter of tri-hydroxy-aminomethane (pH 7.4), 3 mmol/liter of magnesium chloride, 1 mmol/liter of AMP, 1 μmol/liter of ^3 H-cAMP (specific activity about 10 MBq/μmol), PDE as well as the substance to be tested, and water for the control is incubated for 15 minutes at 37° C. The incubation is stopped by the addition of 0.5 ml of zinc sulphate (0.266 mol/liter) and 0.5 ml of barium hydroxide (0.226 mol/liter), the precipitate is centrifuged, and the activity remaining in the supernatant of the unreacted ^3 H-cAMP is determined. From a comparison of the substance preparations and the control preparations, the concentration for a 50% inhibiting activity (IC50) of the respective substance was calculated.

mice = assay: Acute toxicity; format: in vivo; conditions: observation time 14 days
Method: The acute toxicity of the substances to be tested was determined in groups of 5 mice each each after peroral administration of a dose of 250 mg/kg or 1000 mg/kg (observation time: 14 days).

With `CC(C)(C)c1cc([S+]([O-])CCCCOc2ccc3c(c2)C(C)(C)C(=O)N3)cc(C(C)(C)C)c1O` (stereo not drawn) [G, 3,3-Dimethyl-5-[4-(3,5-di-tert.butyl-4-hydroxy-phenylsulfinyl)-butoxy]-indolinone-2] the change in vivo at 10 mg/kg (conscious mice) was 154%, the IC50 (phosphodiesterase (PDE)) was 70 nM and the “Acute toxicity per os (animals died)” value (mice; 1000 mg/kg peroral) was 0 out of 6.
For `COc1cc2ccc([S+]([O-])CCCCOc3ccc4c(c3)C(C)(C)C(=O)N4)cc2cc1OC` (stereo not drawn) [L, 3,3-Dimethyl-5-[4-(6,7-dimethoxy-naphthyl-(2)-sulfinyl)butoxy]-indolinone-2], the change in vivo at 10 mg/kg (conscious mice) was 102%, the IC50 (phosphodiesterase (PDE)) was 240 nM and the “Acute toxicity per os (animals died)” value (mice; 1000 mg/kg peroral) was 0 out of 6.
In the case of `CC1(C)C(=O)Nc2ccc(OCCCC[S+]([O-])c3ccc(Cl)cc3)cc21` (stereo not drawn) [P, 3,3-Dimethyl-5-[4-(4-chlorophenylsulfinyl)-butoxy]-indolinone-2], the change in vivo at 10 mg/kg (conscious mice) is reported as 114%, the IC50 (phosphodiesterase (PDE)) is reported as 360 nM and the “Acute toxicity per os (animals died)” value (mice; 1000 mg/kg peroral) is reported as 0 out of 6.
`CC1(C)C(=O)Nc2ccc(OCCCC[S+]([O-])c3ccc(C4CCCCC4)cc3)cc21` (stereo not drawn) [S, 3,3-Dimethyl-5-[4-(4-cyclohexyl-phenyl-sulfinyl)-butoxy]-indolinone-2] was tested, and the change in vivo at 10 mg/kg (conscious mice) was 104%, the IC50 (phosphodiesterase (PDE)) was 58 nM and the “Acute toxicity per os (animals died)” value (mice; 1000 mg/kg peroral) was 0 out of 6.
For `CC1(C)C(=O)Nc2ccc(OCCCC[S+]([O-])c3cc(Br)c(N)c(Br)c3)cc21` (stereo not drawn) [N, 3,3-Dimethyl-5-[4-(3,5-dibromo-4-amino-phenyl-sulfinyl)butoxy]-indolinone-2], the change in vivo at 10 mg/kg (conscious mice) was greater than 254%, the IC50 (phosphodiesterase (PDE)) was 110 nM and the “Acute toxicity per os (animals died)” value (mice; 1000 mg/kg peroral) was 0 out of 6.
`CC1(C)C(=O)Nc2ccc(OCCCC[S+]([O-])c3ccc(-c4ccccc4F)cc3)cc21` (stereo not drawn) [D, 3,3-Dimethyl-5-[4-(2'-fluoro-4-biphenylylsulfinyl)-butoxy]-indolinone-2] was tested, and the change in vivo at 10 mg/kg (conscious mice) was greater than 249%, the IC50 (phosphodiesterase (PDE)) was 27 nM and the “Acute toxicity per os (animals died)” value (mice; 1000 mg/kg peroral) was 0 out of 6.
In the case of `CC1(C)C(=O)Nc2ccc(OCCCC[S+]([O-])c3ccccc3)cc21` (stereo not drawn) [A, 3,3-Dimethyl-5-(4-phenylsulfinyl-butoxy)-indolinone-2], the IC50 (phosphodiesterase (PDE)) is reported as 2500 nM and the “Acute toxicity per os (animals died)” value (mice; 250 mg/kg peroral) is reported as 0 out of 5.
`COc1cc2ccc(S(=O)(=O)CCCCOc3ccc4c(c3)C(C)(C)C(=O)N4)cc2cc1OC` [F, 3,3-Dimethyl-5-[4-(6,7-dimethoxy-naphthyl-(2)-sulfonyl)butoxy]-indolinone-2] was tested, and the change in vivo at 10 mg/kg (conscious mice) was greater than 232%, the IC50 (phosphodiesterase (PDE)) was 240 nM and the “Acute toxicity per os (animals died)” value (mice; 1000 mg/kg peroral) was 0 out of 6.
`COc1ccc([S+]([O-])CCCCOc2ccc3c(c2)C(C)(C)C(=O)N3)cc1OC` (stereo not drawn) [E, 3,3-Dimethyl-5-[4-(3,4-dimethoxyphenylsulfinyl)-butoxy]-indolinone-2] was tested, and the change in vivo at 10 mg/kg (conscious mice) was greater than 198%, the IC50 (phosphodiesterase (PDE)) was 540 nM and the “Acute toxicity per os (animals died)” value (mice; 1000 mg/kg peroral) was 0 out of 6.
For `CC1(C)C(=O)Nc2ccc(OCCCC[S+]([O-])c3ccc(Cl)c(Cl)c3)cc21` (stereo not drawn) [B, 3,3-Dimethyl-5-[4-(3,4-dichlorophenylsulfinyl)-butoxy]-indolinone-2], the change in vivo at 10 mg/kg (conscious mice) was 59%, the IC50 (phosphodiesterase (PDE)) was 300 nM and the “Acute toxicity per os (animals died)” value (mice; 1000 mg/kg peroral) was 0 out of 6.
For `CC1(C)C(=O)Nc2ccc(OCCCCC[S+]([O-])c3ccc(C4CCCCC4)cc3)cc21` (stereo not drawn) [Q, 3,3-Dimethyl-5-[5-(4-cyclohexyl-phenyl-sulfinyl)-pentoxy]-indolinone-2], the change in vivo at 10 mg/kg (conscious mice) was greater than 174%, the IC50 (phosphodiesterase (PDE)) was 380 nM and the “Acute toxicity per os (animals died)” value (mice; 1000 mg/kg peroral) was 0 out of 6.
In the case of `CC(C)(C)c1ccc(S(=O)(=O)CCCCOc2ccc3c(c2)C(C)(C)C(=O)N3)cc1` [R, 3,3-Dimethyl-5-[4-(4-tert.butyl-phenyl-sulfonyl)-butoxy]-indolinone-2], the change in vivo at 10 mg/kg (conscious mice) is reported as greater than 242%, the IC50 (phosphodiesterase (PDE)) is reported as 240 nM and the “Acute toxicity per os (animals died)” value (mice; 1000 mg/kg peroral) is reported as 0 out of 6.
With `CC1(C)C(=O)Nc2ccc(OCCCC[S+]([O-])c3ccc4ccccc4c3)cc21` (stereo not drawn) [O, 3,3-Dimethyl-5-[4-(naphthyl-(2)-sulfinyl)-butoxy]-indolinone-2] the change in vivo at 10 mg/kg (conscious mice) was 127%, the IC50 (phosphodiesterase (PDE)) was 110 nM and the “Acute toxicity per os (animals died)” value (mice; 1000 mg/kg peroral) was 0 out of 6.
For `CC(C)(C)c1cc(S(=O)(=O)CCCCOc2ccc3c(c2)C(C)(C)C(=O)N3)cc(C(C)(C)C)c1O` [H, 3,3-Dimethyl-5-[4-(3,5-di-tert.butyl-4-hydroxy-phenylsulfonyl)-butoxy]-indolinone-2], the change in vivo at 10 mg/kg (conscious mice) was 149%, the IC50 (phosphodiesterase (PDE)) was 59 nM and the “Acute toxicity per os (animals died)” value (mice; 1000 mg/kg peroral) was 0 out of 6.
With `CC1(C)C(=O)Nc2ccc(OCCCCSc3cc(Cl)c(O)c(Cl)c3)cc21` [M, 3,3-Dimethyl-5-[4-(3,5-dichloro-4-hydroxy-phenyl-mercapto)-butoxy]-indolinone-2] the change in vivo at 10 mg/kg (conscious mice) was 140% and the “Acute toxicity per os (animals died)” value (mice; 1000 mg/kg peroral) was 0 out of 6.
In the case of `COc1ccc([S+]([O-])CCCCOc2ccc3c(c2)C(C)(C)C(=O)N3)cc1` (stereo not drawn) [I, 3,3-Dimethyl-5-[4-(4-methoxyphenyl-sulfinyl)-butoxy]-indolinone-2], the change in vivo at 10 mg/kg (conscious mice) is reported as greater than 214%, the IC50 (phosphodiesterase (PDE)) is reported as 500 nM and the “Acute toxicity per os (animals died)” value (mice; 1000 mg/kg peroral) is reported as 0 out of 6.
For `CC(C)(C)c1ccc([S+]([O-])CCCCOc2ccc3c(c2)C(C)(C)C(=O)N3)cc1` (stereo not drawn) [K, 3,3-Dimethyl-5-[4-(4-tert.butyl-phenyl-sulfinyl)-butoxy]-indolinone-2], the change in vivo at 10 mg/kg (conscious mice) was greater than 285%, the IC50 (phosphodiesterase (PDE)) was 270 nM and the “Acute toxicity per os (animals died)” value (mice; 1000 mg/kg peroral) was 0 out of 6.
For `CC1(C)C(=O)Nc2ccc(OCCCCSc3ccc(C4CCCCC4)cc3)cc21` [C, 3,3-Dimethyl-5-[4-(4-cyclohexylphenylmercapto)-butoxy]-indolinone-2], the IC50 (phosphodiesterase (PDE)) was 2500 nM and the “Acute toxicity per os (animals died)” value (mice; 1000 mg/kg peroral) was 0 out of 6.
